Columns and labels:
Format in all cases: in vivo
Botrytis cinerea [1] = assay: Test Example 2: curative effect on Botrytis disease of cucumber; details: cucumber (Sagami Hanjiro), wettable powder, 200 ppm foliar spray after inoculation, 12° C. for 2 days under high humidity
Description: (§1) The area of lesions on the test plants at testing was visually observed, and the control effect was evaluated by comparing the area of lesions on test plants treated with the invented compound with the area of lesions on untreated plants.
Test for showing curative effect on Botrytis disease of cucumber (Botrytis cinerea):
Sand soil was packed in a plastic pot, and seeds of cucumber (variety: Sagami Hanjiro) were sowed therein and grown for 12 days in a greenhouse. A PDA medium containing spores of Botrytis cinerea was placed on the surface of leaves of the cucumber to inoculate the surface of leaves of the cucumber. Then, the wettable powder of each of the invented compounds (1) and (2) and the comparative compound (A) was diluted with water to a concentration of 200 ppm and was sprayed onto the foliage of the cucumber so that a sufficient amount of the compound would be applied to the surface of leaves of the cucumber. After spraying, the plant was air-dried and left at 12° C. for 2 days under high humidity, and then the area of lesions was examined.
As a result, the lesion area on the plant treated with the invented compounds (1) and (2) was respectively less than 11% and less than 15% of the lesion area on the plant of untreated plant. The lesion area on the plant treated with the comparative compound (A) was 98% of the untreated plant.

Magnaporthe grisea = details: rice (Nihonbare), flowable formulation, 500 ppm foliar spray before inoculation, 5 days after inoculation
Botrytis cinerea [2] = assay: Test Example 1: preventive effect on Botrytis disease of cucumber; details: cucumber (Sagami Hanjiro), flowable formulation, 200 ppm foliar spray before inoculation, 12° C. for 5 days under high humidity
Description: as §1
Test for showing preventive effect on Botrytis disease of cucumber (Botrytis cinerea):
Sand soil was packed in a plastic pot, and seeds of cucumber (variety: Sagami Hanjiro) were sowed therein and grown for 12 days in a greenhouse. Each of the invented compounds (1)-(5) and the comparative compound (A) was formulated into flowable formulation in accordance with Formulation Example 6, and it was diluted with water to a given concentration (200 ppm) and was sprayed onto the foliage of the cucumber so that a sufficient amount of the compound would be applied to the surface of leaves of the cucumber. After spraying, the plant was air-dried and PDA medium containing spores of Botrytis cinerea was placed on the surface of leaves of the cucumber. After the inoculation, the plant was left at 12° C. for 5 days under high humidity, and then the area of lesions was examined. As a result, the lesion area on the plant treated with the invented compounds (1)-(5) was less than 10% of the lesion area on the untreated plant. The lesion area on the plant treated with the comparative compound (A) was 98% of the untreated plant.

| SMILES | lesion area on the treated plant as % of the lesion area on the untreated plant (Botrytis cinerea [1]) | lesion area on the treated plant as % of the lesion area on the untreated plant (Magnaporthe grisea) [%] | lesion area on the treated plant as % of the lesion area on the untreated plant (Botrytis cinerea [2]) [%] |
| --- | --- | --- | --- |
| CCOc1cccc(CNC(=O)c2ccc3ncccc3c2)c1F [invented compound (2), N-(3-ethoxy-2-fluorophenyl)methyl-quinoline-6-carboxamide] | less than 15% | – | – |
| COc1cccc(CNC(=O)c2ccc3ncccc3c2)c1F [invented compound (1), N-(2-fluoro-3-methoxyphenyl)methyl-quinoline-6-carboxamide] | less than 11% | – | – |
| CC(C)CCOc1cccc(CNC(=O)c2ccc3ncccc3c2)c1 [comparative compound (A), N-(3-(3-methylbutoxy)phenyl)methyl-quinoline-6-carboxamide] | 98% | 98 | 98 |

— patent US20100227884A1 (priority 2007, published 2010)
